Experimental data: US20070037785A1, “Novel dipeptidyl peptidase IV inhibitors used for functionally influencing different cells and treating immunological, infammatory, neuronal, and other diseases” (priority 2003, published 2007)
Where two headings read alike, the source gives them in different places.

Biological target: dipeptidyl peptidase IV (Homo sapiens, UniProt P27487)
Assay: biochemical
[1] = values without "*" = IC-50, read-out: IC50DPIV
[2] = values marked with "*" are ID50 values, read-out: IC50DPIV, values marked with "*" = ID50

Sequence of dipeptidyl peptidase IV (P27487 whole entry, species assumed): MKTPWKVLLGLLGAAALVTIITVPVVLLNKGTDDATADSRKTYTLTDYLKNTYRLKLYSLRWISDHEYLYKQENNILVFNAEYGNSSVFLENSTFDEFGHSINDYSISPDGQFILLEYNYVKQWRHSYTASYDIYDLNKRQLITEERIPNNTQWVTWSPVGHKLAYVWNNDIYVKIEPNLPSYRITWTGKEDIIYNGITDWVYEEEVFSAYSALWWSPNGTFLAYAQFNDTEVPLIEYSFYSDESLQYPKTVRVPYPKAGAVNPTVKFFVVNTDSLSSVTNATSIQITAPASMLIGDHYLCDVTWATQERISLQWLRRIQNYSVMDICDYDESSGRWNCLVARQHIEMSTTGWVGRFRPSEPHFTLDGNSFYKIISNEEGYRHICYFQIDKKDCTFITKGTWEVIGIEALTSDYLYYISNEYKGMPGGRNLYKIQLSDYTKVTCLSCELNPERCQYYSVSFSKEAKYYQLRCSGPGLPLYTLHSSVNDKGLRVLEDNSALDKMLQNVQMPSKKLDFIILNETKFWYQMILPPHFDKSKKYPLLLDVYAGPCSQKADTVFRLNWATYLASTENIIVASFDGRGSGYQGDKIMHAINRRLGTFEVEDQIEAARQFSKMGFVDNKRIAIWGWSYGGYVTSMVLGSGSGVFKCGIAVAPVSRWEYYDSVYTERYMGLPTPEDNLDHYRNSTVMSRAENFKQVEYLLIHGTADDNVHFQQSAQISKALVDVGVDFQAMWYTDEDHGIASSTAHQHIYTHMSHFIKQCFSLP

Structure (SMILES) | IC50 [1] [µM] | IC50 [2] [µM]
Cc1cccc(C2N(CC(C)C)CC(C(=O)c3c(C)cccc3C)N2CCCN2CCCC2=O)c1 (stereo not drawn) [D4.010] | 7.5 | 
O=C1CSCC(=O)N1c1cc(Cl)cc(Cl)c1 [D4.011] | 8.5 | 
Nc1nonc1-n1nnc(C(=O)NN=C2c3ccccc3-c3ccccc32)c1-c1ccccc1 [D4.013] | 10.1 | 
CCOC(=O)c1ccc(N2C(=O)CSCC2=O)cc1 [D4.015] | 12.2 | 
CCCn1c(N2CCN(CC(=O)c3c(C)n(C)c4ccccc34)CC2)nc2c1c(=O)[nH]c(=O)n2C [D4.019] | 15.2 | 
COC(=O)C(CC(C)C)Nc1ccc(N2C(=O)CCCC2=O)cc1[N+](=O)[O-] (stereo not drawn) [D4.021] | 15.4 | 
CC(=O)Oc1cccc(N2C(=O)c3ccc(C(=O)NCc4ccc(C(=O)O)cc4)cc3C2=O)c1 [D4.023] | 18.2 | 
Cc1cc(Nc2ccc(N3C(=O)CCCC3=O)cc2[N+](=O)[O-])no1 [D4.025] | 20 | 
O=C1c2ccc(Oc3ccc([N+](=O)[O-])cc3[N+](=O)[O-])cc2C(=O)N1c1ccccc1 [D4.028] | 20.6 | 
NS(=O)(=O)c1ccc(N2C(=O)CCCC2=O)cc1 [D4.030] | 21 | 
N#C/C(=C\c1ccc(N2CCCCC2)c([N+](=O)[O-])c1)c1nn(CCO)c(N)c1C#N [D4.032] | 23.6 | 
O=C1c2ccc(-c3nc4ccccc4c(=O)o3)cc2C(=O)N1c1ccc(Cc2ccc(N3C(=O)c4ccc(-c5nc6ccccc6c(=O)o5)cc4C3=O)cc2)cc1 [D4.037] | 27.7 | 
COC1CC2=C(CC1OC)CC(C)(C)NC2 (stereo not drawn) [D4.039] | 28.8 | 
COc1ccc(Cl)cc1N1C(=O)CSCC1=O [D4.041] | 30.7 | 
O=C1NCCCCC1Nc1ccc(N2C(=O)CCCC2=O)cc1[N+](=O)[O-] (stereo not drawn) [D4.044] | 34.1 | 
CCOC(=O)c1c(C)oc2c1c1c(c3ccccc32)OCN(C2CCS(=O)(=O)C2)C1 (stereo not drawn) [D4.045] | 34.2 | 
CC1=C(C#N)C(=O)N(CCCO)C(=O)/C1=C\c1ccc(-c2cc(C)c(C)cc2[N+](=O)[O-])o1 [D4.046] | 34.8 | 
COc1cc(N2C(=O)CSCC2=O)c(Cl)cc1Cl [D4.047] | 35.3 | 
CCOCCCNc1ccc(N2C(=O)CCCC2=O)cc1[N+](=O)[O-] [D4.048] | 36.8 | 
CCOC(=O)c1c(C)nn(-c2ccc(N3C(=O)CSCC3=O)cc2)c1C [D4.049] | 37.4 | 
C=CCOC(=O)c1cc(-c2ccc(/C=C3/C(=O)N(CCCO)C(=O)C(C#N)=C3C)o2)ccc1Cl [D4.054] | 44.6 | 
CC1=C(C#N)C(=O)N(CCc2ccccc2)C(=O)/C1=C/c1ccc(-c2ccc(S(N)(=O)=O)cc2)o1 [D4.057] | 48.2 | 
CCCCOC(=O)c1cc(-c2ccc(/C=C3/C(=O)N(CC(C)O)C(=O)C(C#N)=C3C)o2)ccc1Cl (stereo not drawn) [D4.059] | 49 | 

Structure (SMILES) | IC50 [1] [µM] | IC50 [2] [µM]
O=C(Oc1csc(-c2cccnc2)n1)C1CC1 [D4.061] | 52.5 | 
O=C1CCCC(=O)N1c1ccc(NCCOCCO)c([N+](=O)[O-])c1 [D4.065] | 55 | 
CCOC(=O)c1cc(-c2ccc(/C=C3/C(=O)NC(=O)C(C#N)=C3C)o2)ccc1Cl [D4.069] | 56.7 | 
NC(=O)C1CCN(c2ccc(N3C(=O)CCCC3=O)cc2[N+](=O)[O-])CC1 [D4.070] | 57 | 
C/C(=C\c1ccc(C(C)C)cc1)C1NCC(c2ccc([N+](=O)[O-])cc2)O1 (stereo not drawn) [D4.072] | 65 | 
CC(=O)Oc1cccc(N2C(=O)C3C(C2=O)C2(C)C=CC3(C)O2)c1 (stereo not drawn) [D4.073] | 65.6 | 
CCOC(=O)c1ccc(-c2ccc(/C=C3\C(=O)N(CCO)C(=O)C(C#N)=C3C)o2)cc1 [D4.074] | 65.9 | 
O=C1C(N2CCOCC2)=C(Cl)/C(=N/S(=O)(=O)c2ccc(Cl)cc2)C(Cl)(Cl)C1(Cl)Cl [D4.075] | 66.6 | 
CCOC(=O)N1CCN(c2ccc(N3C(=O)CCCC3=O)cc2[N+](=O)[O-])CC1 [D4.078] | 70.4 | 
CC1=C(C#N)C(=O)N(CC(C)O)C(=O)/C1=C/c1ccc(-c2ccc(Br)cc2)o1 (stereo not drawn) [D4.080] | 73.8 | 
CCCOC(=O)c1cc(-c2ccc(/C=C3\C(=O)N(CCCO)C(=O)C(C#N)=C3C)o2)ccc1Cl [D4.081] | 76.3 | 
CCCOC(=O)c1cc(-c2ccc(/C=C3/C(=O)N(CC(C)O)C(=O)C(C#N)=C3C)o2)ccc1Cl (stereo not drawn) [D4.083] | 82.2 | 
NCc1ccccc1-n1cccc1 [D4.085] | 92.5 | 
O=C1CSCC(=O)N1c1ccc(F)cc1 [D4.086] | 94.5 | 
CC1=C(C#N)C(=O)N=C(O)/C1=C\c1ccc(-c2ccc(Cl)cc2Cl)o1 [D4.087] | 95.8 | 
CC1(C)NCC(c2ccccc2)CC1O (stereo not drawn) [D4.088] |  | 96.2
O=C(Oc1cccc(-n2cnnn2)c1)C1CC1 [D4.089] |  | 98.4
Oc1ccc(-c2csc(Nc3ncccn3)n2)cc1O [D4.095] |  | 163
O=C1CSCC(=O)N1c1ccc(F)cc1F [D4.100] |  | 216
CCCc1c(C)nc(N)c(C#N)c1-c1ccccc1 [D4.104] |  | 255
Cc1[nH]c2ccccc2c1C(c1cc(Cl)ccc1O)N1CCOCC1 (stereo not drawn) [D5.007] | 12.1 | 
O=C(c1cc(C(=O)N2CCOCC2)cc([N+](=O)[O-])c1)N1CCOCC1 [D5.009] |  | 10.7

Other lines, results leading:

IC50 [1] [µM] | IC50 [2] [µM] | Structure (SMILES)
6.9 |  | N#CC1=C(N)C(C#N)(C#N)C(c2ccccc2)C2CNCC=C12 (stereo not drawn) [D4.007]
7.4 |  | N#CC1=C(N)C(C#N)(C#N)C(c2ccccc2F)C2CNCC=C12 (stereo not drawn) [D4.009]
12.3 |  | O=C1C=C(c2cccc([N+](=O)[O-])c2)C(=O)N1c1ccc(Cl)cc1 [D4.016]
13.5 |  | CCOC(=O)CN(Cc1ccccc1)c1ccc(N2C(=O)CCCC2=O)cc1[N+](=O)[O-] [D4.017]
15.2 |  | CCCC(=O)O/N=C1\C(=O)N(c2ccccc2)c2ccccc21 [D4.020]
19.2 |  | COc1ccc(N2CCN(c3nc4c(c(=O)[nH]c(=O)n4C)n3Cc3ccccc3)CC2)cc1 [D4.024]
24.3 |  | COc1ccc(/C=N/n2c(N(C(C)=O)C(C)=O)nc(-c3ccccc3)c2-c2ccccc2)cc1 [D4.034]
24.5 |  | O=C1CCCC(=O)N1c1ccc(N2CCN(Cc3ccccc3)CC2)c([N+](=O)[O-])c1 [D4.035]
43.1 |  | O=C1NC23NC(=O)NC2(N1)c1ccccc1-c1ccccc13 (stereo not drawn) [D4.053]
52.6 |  | COc1ccc(CCN(C)c2ccc(N3C(=O)CCCC3=O)cc2[N+](=O)[O-])cc1OC [D4.062]
54.9 |  | O=C1CCCC(=O)N1c1ccc(NCCc2ccc(O)cc2)c([N+](=O)[O-])c1 [D4.064]
56.2 |  | CCOc1ccc(/C=N/NC(=O)c2cc(-c3c(OC)ccc4ccccc34)n[nH]2)cc1 [D4.068]
60.7 |  | COc1ccc(C2(N3CCCC3)Oc3ccccc3C(C#Cc3ccccc3)=C2C)cc1 (stereo not drawn) [D4.071]
70.1 |  | COc1ccccc1C1NCC(c2ccc([N+](=O)[O-])cc2)O1 (stereo not drawn) [D4.077]
 | 71.3 | CC(=O)Nc1ccc(Nc2ccc(N3C(=O)CCCC3=O)cc2[N+](=O)[O-])cc1 [D4.079]
 | 172 | CC(C)c1ccc(N2CC(C(=O)Nc3ccc(Br)cc3Br)CC2=O)cc1 (stereo not drawn) [D4.096]
 | 231 | CN(Cc1ccccc1)c1ccc(N2C(=O)CCCC2=O)cc1[N+](=O)[O-] [D4.101]
 | 361 | CS(=O)(=O)N1CCN(c2ccc([N+](=O)[O-])c(NCc3ccc(Cl)cc3)c2)CC1 [D4.112]
 | 394 | N#C/C(=C\c1ccc(-c2ccc(Cl)cc2)o1)C(=O)Nc1cccc([N+](=O)[O-])c1 [D4.114]
 | 456 | N#C/C(=C\c1ccc(N2Cc3ccccc3C2)cc1)C(=O)NCc1ccco1 [D4.118]
19.2 |  | COc1ccc(N2CCN(c3nc4c(c(=O)[nH]c(=O)n4C)n3Cc3ccccc3)CC2)cc1 [D5.020]
